Data taken from patent US8703964B2, “Bendamustine cyclopolysaccharide compositions” (Supratek Pharma Inc., priority 2009, dated 2014).
pIC50: −log10 of the molar value.

Tests used:
[1] = tested on: Human breast carcinoma MDA-MB 231 s.c. solid tumors; test: Human breast carcinoma MDA-MB 231 s.c. solid tumors in nude mice (Example 29); type: in vivo, balb/c nu/nu mice; settings: for Tumor weight after treatment, Average (SEM): 30 mg/kg days 1, 2, 9, 10
Description: balb/c mice aged 5 to 6 weeks were purchased from Charles River Canada Inc. The animals were kept 5 per cage with an air filter cover under light (12 light/dark cycle, light on at 6 H00) and temperature (22° C.±1° C.)-controlled environment. All manipulations of animals were performed under a sterilized laminar hood. The animals had ad libitum access to Purina mouse chow (Pro Lab PMH 4018, Trademark of Agway, Syracuse, N.Y.) and water. These animal studies were conducted according to the “Guidelines for Care and Use of Experimental Animals”. Tumor Cell Culture: Human breast cancer cells MDA-MB 231 were cultured in the appropriated culture medium. The cells were harvested in their logarithmic growth phase for the preparation of tumor implantation. Tumor Implantation: Human tumor or myeloma cells (2.5 to 5.0×10^6 cells) were implanted subcutaneously in 0.200 mL of medium containing 30% Matrigel on the two flanks of balb/c nu/nu mice through a 1 to 2 cm long 20-gauge needle. Treatments: 2 to 3 weeks after tumor cell implantation, animals that developed s.c. solid tumors were selected and divided into several homogeneous groups (n=5 animals per group or dose) with respect to tumor size (0.5 to 0.8 cm in diameter). The treatments were performed next day. The animals were dosed with the following dosing solutions. Control: (0.9%, NaCl) Compositions:
Subcutaneous solid tumor measurements were performed on the day of first injection and at 3- to 4-day intervals thereafter. The two largest perpendicular diameters of each tumor were measured with calipers and tumor sizes were estimated using the formula: TV=L×W/2 where TV: tumor volume; L: length; W: width. The body weights of animals were also noted.
The experiment was performed employing the procedures described in Example 28, using the following compositions for treatment:
non-formulated Bendamustine, (30 mg/kg)
Bendamustine (30 mg/kg) in 20% SBECD, 1% LMWP (formulated BM)
The treatment was performed on days 1, 2, 9, and 10.

[2] = Pharmacokinetics of bendamustine dosed to rats, composition with SBECD and protamine sulphate (Example 13); type: in vivo; settings: female, Sprague-Dawley, rat, plasma, iv, i.v. 10 mg/kg, read-out: Concentration of bendamustine in rat plasma, Mean (SEM)
Description: Control: 2.5 mg/mL bendamustine hydrochloride, 4.25 mg/mL of mannitol in 0.9% NaCl; dose of 10 mg/kg
Inventive Composition: 2.5 mg/mL bendamustine hydrochloride, 40% w/w sodium sulfobutyl ether β-cyclodextrin, 3% protamine sulfate, 4.3 mg/g mannitol in water (produced according to the process described in Example 10); dose of 10 mg/kg.
Female Sprague-Dawley rats (250-350 g). The animals were kept three per cage with an air filter cover under light (12 h light/dark cycle, light on at 06 h00) and controlled temperature of 22° C.+/−1° C. All manipulations with the animals were performed under a sterilized laminar hood. The animals had ad libitum access to Purina mouse chow and water. The animals were fasted overnight and anesthetized, before dosing. Dosing and Sampling: Bendamustine composition and control were administered intravenously to rats in tail vein. After time intervals 5, 15, 30, 45 min, 1, 1.5, 2 and 3 hrs post-injection, the blood samples were collected. The rats were anesthetized by general inhalation of isoflurane. The blood samples were collected from the jugular vein with heparinized tube and kept on ice. Blood was immediately centrifuged, and plasma was separated. The plasma samples were immediately extracted. Sample Extraction and Analysis: The plasma samples 0.100 mL were transferred to plastic tubes. The samples were extracted with 0.400 mL of 100 mM HCl in acetonitrile while being shaken vigorously for 30 seconds. The samples were centrifuged at 10000 RPM for 5 minutes. The supernatant was separated. The samples were frozen in dry ice and kept at −80° C. until HPLC analysis. 20 microliter aliquots were injected into HPLC for analysis. The HPLC conditions: C18 reversed phase column 50×4.6 mm, Symmetry/Shield 3.5 micrometer Column temperature 30° C. Flow rate 1.5 mL/min Injection volume 20 microliters Fluorescence detection at wavelengths: excitation 327 nm, emission 420 nm Mobile phase: Buffer A: 5% acetonitrile 0.1% TFA Buffer B: 90% acetonitrile 0.1% TFA Run time: 10 min The improved pharmacokinetic profiles of Bendamustine for tested composition versus the control is shown in Table 3 below.

[3] = tested on: H69 cells; test: Cytotoxicity of bendamustine composition comprising SBECD and LMWP, WST-1 (Example 24); type: cell-based; settings: Homo sapiens, NCI-H69, 72 h, read-out: drug cytotoxicity (WST-1), Table 8
Description: (§1) RPMI8226, H69, MDA-MB-231, and H460 cells were maintained in appropriate medium, containing 10% FBS and antibiotics. 24 h after plating, bendamustine, and bendamustine formulated in SBECD/LMWP (40 mg/ml BM in 20% SBECD, 1% LMWP) were added in different concentrations to cell cultures and cells were grown for three days. The drug cytotoxicity was evaluated using WST-1 procedure.

[4] = tested on: H460 cells; test: as above; type: cell-based; settings: Homo sapiens, NCI-H460, 72 h, read-out: drug cytotoxicity (WST-1), Table 8
Description: as §1

[5] = tested on: RPMI8226 cells; test: as above; type: cell-based; settings: Homo sapiens, RPMI-8226, 72 h, read-out: drug cytotoxicity (WST-1), Table 8
Description: as §1

[6] = tested on: MDA-MB-231 cells; test: as above; type: cell-based; settings: Homo sapiens, MDA-MB-231, 72 h, read-out: drug cytotoxicity (WST-1), Table 8
Description: as §1

Cn1c(CCCC(=O)O)nc2cc(N(CCCl)CCCl)ccc21 [BM, 4-[5-[bis(2-chloroethyl)amino]-1-methylbenzimidazol-2-yl]butanoic acid]
Tumor weight after treatment, Average (SEM) ([1]; day 0): 0.139 (0.013) g
Tumor weight after treatment, Average (SEM) ([1]; day 2): 0.178 (0.027) g
Tumor weight after treatment, Average (SEM) ([1]; day 4): 0.202 (0.039) g
Tumor weight after treatment, Average (SEM) ([1]; day 6): 0.259 (0.049) g
Tumor weight after treatment, Average (SEM) ([1]; day 8): 0.295 (0.054) g
Tumor weight after treatment, Average (SEM) ([1]; day 10): 0.319 (0.044) g
Tumor weight after treatment, Average (SEM) ([1]; day 12): 0.361 (0.050) g
Tumor weight after treatment, Average (SEM) ([1]; day 14): 0.417 (0.054) g
Tumor weight after treatment, Average (SEM) ([1]; day 16): 0.487 (0.067) g
Inhibition % vs control (on day 16) ([1]; 30 mg/kg, Day 1, 2, 9, 10): 38.3%
Tumor weight on day 16 ([1]; 30 mg/kg, Day 1, 2, 9, 10, right flank tumors only): 0.487 ± 0.067 g
concentration at 0.08 h ([2]; 0.08 h post injection): 6040 ng/mL
concentration at 0.25 h ([2]; 0.25 h post injection): 2430 ng/mL
concentration at 0.5 h ([2]; 0.5 h post injection): 520 ng/mL
concentration at 0.75 h ([2]; 0.75 h post injection): 145 ng/mL
concentration at 1 h ([2]; 1 h post injection): 48 ng/mL
concentration at 1.5 h ([2]; 1.5 h post injection): 8 ng/mL
concentration at 2 h ([2]; 2 h post injection): 2 ng/mL
concentration at 3 h ([2]; 3 h post injection): 0 ng/mL
pIC50 [3]: 3.60
pIC50 [4]: 3.22
pIC50 [5]: 3.93
pIC50 [6]: 3.22
